Data from PubChem BioAssay AID1259407 (Chemical Carcinogenesis Research Information System (CCRIS), 2018).
Calls of active or inactive are those of the source. The rule behind the calls is not given here.

System: CCRIS mutagenicity, Ames/micronucleus/aberration tests
Experiment: CCRIS mutagenicity studies
[1] = Test System: AMES SALMONELLA TYPHIMURIUM, Strain/Indicator: TA98, Metabolic Activation: NONE, Method: STANDARD PLATE
[2] = Test System: AMES SALMONELLA TYPHIMURIUM, Strain/Indicator: TA100, Metabolic Activation: NONE, Method: STANDARD PLATE
[3] = Test System: AMES SALMONELLA TYPHIMURIUM, Strain/Indicator: TA98, Metabolic Activation: NONE, Method: PREINCUBATION
[4] = Test System: AMES SALMONELLA TYPHIMURIUM, Strain/Indicator: TA100, Metabolic Activation: NONE, Method: PREINCUBATION
[5] = Test System: AMES SALMONELLA TYPHIMURIUM, Strain/Indicator: TA1535, Metabolic Activation: NONE, Method: PREINCUBATION
[6] = Test System: AMES SALMONELLA TYPHIMURIUM, Strain/Indicator: TA1537, Metabolic Activation: NONE, Method: PREINCUBATION

Measured: mutagenic call

CCOc1ccc(C(C)(C)C)cc1NC(=O)C(=O)Nc1ccccc1CC
inactive: Test System: AMES SALMONELLA TYPHIMURIUM, Strain/Indicator: TA97, Metabolic Activation: NONE, Method: STANDARD PLATE inactive; negative | Test System: AMES SALMONELLA TYPHIMURIUM, Strain/Indicator: TA97, Metabolic Activation: S-9, Method: STANDARD PLATE inactive; negative | [1] inactive; negative | Test System: AMES SALMONELLA TYPHIMURIUM, Strain/Indicator: TA98, Metabolic Activation: S-9, Method: STANDARD PLATE inactive; negative | [2] inactive; negative | Test System: AMES SALMONELLA TYPHIMURIUM, Strain/Indicator: TA100, Metabolic Activation: S-9, Method: STANDARD PLATE inactive; negative | Test System: AMES SALMONELLA TYPHIMURIUM, Strain/Indicator: TA102, Metabolic Activation: NONE, Method: STANDARD PLATE inactive; negative | Test System: AMES SALMONELLA TYPHIMURIUM, Strain/Indicator: TA102, Metabolic Activation: S-9, Method: STANDARD PLATE inactive; negative | Test System: E.COLI, Strain/Indicator: WP2 (PKM101), Metabolic Activation: NONE, Method: STANDARD PLATE inactive; negative | Test System: E.COLI, Strain/Indicator: WP2 (PKM101), Metabolic Activation: S-9, Method: STANDARD PLATE inactive; negative

CC(C)(C)NCC(O)c1ccc(O)c(NC(N)=O)c1 (configuration not stated)
inactive: [1] inactive; negative | Test System: AMES SALMONELLA TYPHIMURIUM, Strain/Indicator: TA98, Metabolic Activation: RAT, LIVER, S-9, AROCLOR 1254, Method: STANDARD PLATE inactive; negative | [2] inactive; negative | Test System: AMES SALMONELLA TYPHIMURIUM, Strain/Indicator: TA100, Metabolic Activation: RAT, LIVER, S-9, AROCLOR 1254, Method: STANDARD PLATE inactive; negative

CN(C)Nc1nc(-c2ccc([N+](=O)[O-])o2)cs1
active: Test System: AMES SALMONELLA TYPHIMURIUM, Strain/Indicator: TA100, Metabolic Activation: RAT, LIVER, S-9, KC500 OR PHENOBARBITAL, Method: LIQUID SUSPENSION active; positive | Test System: E. COLI WP2, Strain/Indicator: WP2, Metabolic Activation: NONE, Method: SPOT active; positive

Clc1cc(Cl)c(Cl)c(Cl)c1Cl
inactive: Test System: AMES SALMONELLA TYPHIMURIUM, Strain/Indicator: TA98, Metabolic Activation: HAMSTER, LIVER, S-9, AROCLOR 1254, Method: PREINCUBATION inactive; negative | [3] inactive; negative | Test System: AMES SALMONELLA TYPHIMURIUM, Strain/Indicator: TA98, Metabolic Activation: RAT, LIVER, S-9, AROCLOR 1254, Method: PREINCUBATION inactive; negative | Test System: AMES SALMONELLA TYPHIMURIUM, Strain/Indicator: TA100, Metabolic Activation: HAMSTER, LIVER, S-9, AROCLOR 1254, Method: PREINCUBATION inactive; negative | [4] inactive; negative | Test System: AMES SALMONELLA TYPHIMURIUM, Strain/Indicator: TA100, Metabolic Activation: RAT, LIVER, S-9, AROCLOR 1254, Method: PREINCUBATION inactive; negative | Test System: AMES SALMONELLA TYPHIMURIUM, Strain/Indicator: TA1535, Metabolic Activation: HAMSTER, LIVER, S-9, AROCLOR 1254, Method: PREINCUBATION inactive; negative | [5] inactive; negative | Test System: AMES SALMONELLA TYPHIMURIUM, Strain/Indicator: TA1535, Metabolic Activation: RAT, LIVER, S-9, AROCLOR 1254, Method: PREINCUBATION inactive; negative | Test System: AMES SALMONELLA TYPHIMURIUM, Strain/Indicator: TA1537, Metabolic Activation: HAMSTER, LIVER, S-9, AROCLOR 1254, Method: PREINCUBATION inactive; negative | [6] inactive; negative | Test System: AMES SALMONELLA TYPHIMURIUM, Strain/Indicator: TA1537, Metabolic Activation: RAT, LIVER, S-9, AROCLOR 1254, Method: PREINCUBATION inactive; negative

[O]=[Mo](=[O])=[O]
active: Test System: MOUSE LYMPHOMA, Strain/Indicator: L5178Y (TK+/TK-), Metabolic Activation: RAT, LIVER, S-9, AROCLOR 1254, Method: SUSPENSION/PLATE active; positive. reevaluation of results: positive
inactive: Test System: AMES SALMONELLA TYPHIMURIUM, Strain/Indicator: TA97, Metabolic Activation: HAMSTER, LIVER, S-9, AROCLOR 1254 (10%), Method: PREINCUBATION inactive; negative | Test System: AMES SALMONELLA TYPHIMURIUM, Strain/Indicator: TA97, Metabolic Activation: HAMSTER, LIVER, S-9, AROCLOR 1254 (30%), Method: PREINCUBATION inactive; negative | Test System: AMES SALMONELLA TYPHIMURIUM, Strain/Indicator: TA97, Metabolic Activation: NONE, Method: PREINCUBATION inactive; negative | Test System: AMES SALMONELLA TYPHIMURIUM, Strain/Indicator: TA97, Metabolic Activation: RAT, LIVER, S-9, AROCLOR 1254 (10%), Method: PREINCUBATION inactive; negative | Test System: AMES SALMONELLA TYPHIMURIUM, Strain/Indicator: TA97, Metabolic Activation: RAT, LIVER, S-9, AROCLOR 1254 (30%), Method: PREINCUBATION inactive; negative | Test System: AMES SALMONELLA TYPHIMURIUM, Strain/Indicator: TA98, Metabolic Activation: HAMSTER, LIVER, S-9, AROCLOR 1254 (10 OR 30%), Method: PREINCUBATION inactive; negative | [3] inactive; negative | Test System: AMES SALMONELLA TYPHIMURIUM, Strain/Indicator: TA98, Metabolic Activation: RAT, LIVER, S-9, AROCLOR 1254 (10 OR 30%), Method: PREINCUBATION inactive; negative | Test System: AMES SALMONELLA TYPHIMURIUM, Strain/Indicator: TA100, Metabolic Activation: HAMSTER, LIVER, S-9, AROCLOR 1254 (10% OR 30%), Method: PREINCUBATION inactive; negative | [4] inactive; negative | Test System: AMES SALMONELLA TYPHIMURIUM, Strain/Indicator: TA100, Metabolic Activation: RAT, LIVER, S-9, AROCLOR 1254 (10% OR 30%), Method: PREINCUBATION inactive; negative | Test System: AMES SALMONELLA TYPHIMURIUM, Strain/Indicator: TA1535, Metabolic Activation: HAMSTER, LIVER, S-9, AROCLOR 1254 (10%), Method: PREINCUBATION inactive; negative | Test System: AMES SALMONELLA TYPHIMURIUM, Strain/Indicator: TA1535, Metabolic Activation: HAMSTER, LIVER, S-9, AROCLOR 1254 (30%), Method: PREINCUBATION inactive; negative | [5] inactive; negative | Test System: AMES SALMONELLA TYPHIMURIUM, Strain/Indicator: TA1535, Metabolic Activation: RAT, LIVER, S-9, AROCLOR 1254 (10%), Method: PREINCUBATION inactive; negative | Test System: AMES SALMONELLA TYPHIMURIUM, Strain/Indicator: TA1535, Metabolic Activation: RAT, LIVER, S-9, AROCLOR 1254 (30%), Method: PREINCUBATION inactive; negative | Test System: AMES SALMONELLA TYPHIMURIUM, Strain/Indicator: TA1537, Metabolic Activation: HAMSTER, LIVER, S-9, AROCLOR 1254 (30%), Method: PREINCUBATION inactive; negative | [6] inactive; negative | Test System: AMES SALMONELLA TYPHIMURIUM, Strain/Indicator: TA1537, Metabolic Activation: RAT, LIVER, S-9, AROCLOR 1254 (30%), Method: PREINCUBATION inactive; negative | Test System: Mouse lymphoma, Strain/Indicator: L5178Y (tk+/tk-), Metabolic Activation: None, Method: Suspension/plate inactive; inconclusive (previous evaluation negative)

Cc1cccc2ccc3cc4ccccc4cc3c12
active: Test System: AMES SALMONELLA TYPHIMURIUM, Strain/Indicator: TA100, Metabolic Activation: RAT, INTACT HEPATOCYTES, AROCLOR 1254, Method: PREINCUBATION active; positive | Test System: AMES SALMONELLA TYPHIMURIUM, Strain/Indicator: TA100, Metabolic Activation: RAT, NADPH-FORTIFIED HOMOGENIZED HEPATOCYTES, AROCLOR 1254, Method: PREINCUBATION active; positive | Test System: AMES SALMONELLA TYPHIMURIUM, Strain/Indicator: TA100, Metabolic Activation: RAT, SONICATED HEPATOCYTES, AROCLOR 1254, Method: PREINCUBATION active; positive
